# Measurements from article PMC9953746, “Dimeric Benzodiazepines as Peptide Mimetics to Overcome p53-Dependent Drug Resistance of Tumors” (Biomolecules, 2023).
# Like-named read-outs stand apart in the source and are kept apart here. Marks after values point to notes of the source that are not given here.
# Legend:
# solid tumors = tested on: solid tumors; design: method as in PMID 4959850; details: cited from earlier work
# [1] = tested on: colorectal carcinoma HCT116p53^−/−; assay: MTT cell viability assay, HCT116p53-/-; type: cell-based, human; details: for IC50: 72 h, read-out: IC50 HCT116p53^−/− (colon cancer); for SI index: IC50 HCT116p53^−/−/IC50 HCT116: ratio of p53 knockout to wild-type HCT116
# From the text: (§1) The following cell lines were used in this study: epidermoid carcinoma A-431 (ATCC® CRL-1555), lung carcinomas A549 (ATCC® CCL-185) and NCI-H1299 (ATCC® CRL-5803), colorectal carcinomas HCT116 (ATCC® CCL-247) and HCT116p53^−/−, normal skin fibroblasts BJ (ATCC® CRL-2522), and normal lung fibroblasts MRC-5 (ATCC® CCL-171). The HCT116 p53^−/− cell line was a kind gift from Professor Bert Vogelstein (John Hopkin’s University, Baltimore, MD, USA). The remaining cell lines were purchased from ATCC (Manassas, VA, USA). The cells were cultured in minimal, Dulbecco’s modified Eagle’s, or Ham’s F-12K medium supplemented with 10% fetal bovine serum (Gibco by Thermo Fisher Scientific, Waltham, MA, USA) and grown under standard culture conditions (37°C, 5% CO2) in a humidified incubator with an oxygen concentration of 21%. All of the experiments were performed with mycoplasma-free cells.
# (§2) The viability of the cells was assayed by measuring the conversion of MTT (3-(4,5-dimethylthiazol-2-yl)-2,5-diphenyltetrazolium bromide) to formazan (the rate of this reaction is proportional to the number of surviving cells). The cells were seeded in 96-well culture plates at a density of 3500–5000 cells per well 24 h before the treatment. Six wells were considered for each experimental point (technical repeats). Treatments with increasing concentrations of 10, 11, or cisplatin (0.6–80 μM) were performed for 72 h. The MTT stock solution (Sigma-Aldrich by Merck, Darmstadt, Germany) was added at a final concentration of 0.5 mg/mL. After 4 h of incubation at 37 °C, the water-insoluble formazan was dissolved in a lysis buffer containing 20% SDS, 50% DMF, 2.5% hydrochloric acid, and 2.5% acetic acid. The optical densities were measured at 570 nm using a scanning multi-well spectrophotometer (PARADIGM Detection Platform; Beckman Coulter, Brea, CA, USA). The ratio of the absorbance value of each tested group to the absorbance value of the untreated control was calculated, and each tested group’s cell viability was expressed as a percentage of the control. The cell viability assays were performed at least in triplicate using independent cell cultures.
# [2] = tested on: normal skin fibroblasts BJ; assay: MTT cell viability assay, BJ; type: cell-based, human; details: 72 h, read-out: IC50 BJ (normal skin)
# From the text: as §1
# as §2, with “The cell viability assays were performed at least in triplicate using independent cell cultures.” left out
# [3] = tested on: colorectal carcinoma HCT116; assay: MTT cell viability assay, HCT116; type: cell-based, human; details: read-out: IC50 HCT116 (colon cancer)
# From the text: as §1
# as §2, with “The cell viability assays were performed at least in triplicate using independent cell cultures.” left out
# [4] = tested on: epidermoid carcinoma A-431; assay: MTT cell viability assay, A-431; type: cell-based, human; details: for IC50: read-out: IC50 A-431 (epidermoid cancer); for SI index: IC50 BJ/IC50 A-431: selectivity index, normal skin BJ vs A-431
# From the text: as §1, §2
# lung carcinoma NCI-H1299 = assay: MTT cell viability assay, NCI-H1299; type: cell-based, human; details: for IC50: read-out: IC50 NCI-H1299 (lung cancer)
# From the text: as §1, §2
# HCT116 cells = assay: IncuCyte live-cell imaging, cell proliferation and death assay, HCT116; type: cell-based, human; details: 40 µM; for time at which cell death starts to increase significantly, HCT116: SYTOX Green Dead Cell Stain; for confluence, HCT116: up to 72 h, untreated 90%, DMSO 84% on the third day
# From the text: (§3) The cell proliferation and death were estimated in the IncuCyte S3 live-cell imaging system using the SYTOX™ Green Dead Cell Stain (Thermo, cat. no: S34860) and analyzed using the IncuCyte 2019B Rev2 software (Essen BioScience, Ann Arbor, MI, USA), according to the manufacturer’s instructions (https://www.sartorius.com/en/products/live-cell-imaging-analysis/live-cell-analysis-resources/live-cell-imaging-and-analsis-handbook (accessed on 21 October 2022)). The HCT116 and HCT116 p53^−/− cells were seeded in 96-well culture plates at a density of 5000 cells per well 24 h before the treatment. Four wells were considered for each experimental point. Treatments with 10, 11, cisplatin (40 μM), or dimethyl sulfoxide (which was used as a negative control at a concentration equal to the one used to dissolve 10 and 11) were carried out for up to 72 h, and images were recorded every 2 h during this time. The experiment was performed twice.
# lung carcinoma A549 = assay: MTT cell viability assay, A549; type: cell-based, human; details: for IC50: read-out: IC50 A549 (lung cancer)
# From the text: as §1, §2
# HCT116 p53^−/− cells = assay: IncuCyte live-cell imaging, cell proliferation and death assay, HCT116p53-/-; type: cell-based, human; details: 40 µM; for confluence, HCT116p53^−/−: up to 72 h, untreated 88%, DMSO 83% on the third day; for time at which cell death starts to increase significantly, HCT116p53^−/−: SYTOX Green Dead Cell Stain
# From the text: as §3
# [5] = tested on: normal lung fibroblasts MRC-5; assay: MTT cell viability assay, MRC-5; type: cell-based, human; details: read-out: IC50 MRC-5 (normal lung)
# From the text: as §1, §2
# HCT-116 = tested on: HCT-116; design: method as in PMID 26594756, PMID 32095421; details: in vitro; cited from earlier work
# MDA-MB-435 = tested on: MDA-MB-435; design: method as in PMID 26594756, PMID 32095421; details: in vitro; cited from earlier work
# Calu-3 = tested on: Calu-3; design: method as in PMID 26594756, PMID 32095421; details: in vitro; cited from earlier work
# normal IKHE cell line = tested on: normal IKHE cell line; design: method as in PMID 26594756, PMID 32095421; details: in vitro; cited from earlier work
# HepG2 = tested on: HepG2; design: method as in PMID 26594756, PMID 32095421; details: in vitro; cited from earlier work
# Sarcoma 180 = tested on: Sarcoma 180; design: method as in earlier work; details: cited from earlier work
# [6] = tested on: Heps (liver cancer) cell line; design: method as in earlier work; details: cited from earlier work
# [7] = ratio of IC50 values vs cisplatin
smiles,measurement,setting,value
"Cc1ccc2c(c1O)NC(O)C1CC(/C=C/C(N)=O)=CN1C2=O (centres unmarked) [Anthramycin, anthramycin]",growth of solid tumors in mice,solid tumors,inhibited the growth of solid tumors in mice
"N.N.[Cl][Pt][Cl] [Cisplatin, cisplatin, reference compound]",IC50,"[1]; MTT, mean ± SD, n = 3",10.8 ± 2.86 µM
same,SI index: IC50 HCT116p53^−/−/IC50 HCT116,[1],3.18 ± 0.79 (*) ^c
same,IC50,"[2]; MTT, mean ± SD, n = 3",5.06 ± 0.94 µM
same,IC50,"[3]; MTT, 72 h, mean ± SD, n = 3",3.51 ± 1.16 µM
same,IC50,"[4]; MTT, 72 h, mean ± SD, n = 3",1.56 ± 0.29 µM
same,SI index: IC50 BJ/IC50 A-431,[4],3.26 ± 0.41 (**) ^c
same,SI index: IC50 BJ/IC50 A-431,[4]; listed as cisplatin,3.26 ± 0.41
same,IC50,"lung carcinoma NCI-H1299; MTT, 72 h, mean ± SD, n = 3",5.7 ± 0.88 µM
same,"time of highest number of SYTOX Green positive cells, HCT116",HCT116 cells,48 h
same,"time at which cell death starts to increase significantly, HCT116",HCT116 cells,18 h
same,"confluence, HCT116",HCT116 cells,up to 16%
same,IC50,"lung carcinoma A549; MTT, 72 h, mean ± SD, n = 3",5.95 ± 1.28 µM
same,"time to plateau of cell death, HCT116p53^−/−",HCT116 p53^−/− cells,about 72 h
same,"cell death level (SYTOX Green positive cells) at plateau, HCT116p53^−/−",HCT116 p53^−/− cells; after about 72 h,5116.3 ± 211.41
same,"confluence, HCT116p53^−/−",HCT116 p53^−/− cells,up to 16%
same,IC50,"[5]; MTT, 72 h, mean ± SD, n = 3",4.17 ± 0.88 µM
"O=C1NC(CSCSCC2NC(=O)c3cc([N+](=O)[O-])ccc3NC2=O)C(=O)Nc2ccc([N+](=O)[O-])cc21 (centres unmarked) [Compound 10, 3,3′-((methylenebis(sulfanediyl))bis(methylene))bis(7-nitro-3,4-dihydro-1H-benzo[e][1,4]diazepine-2,5-dione)]",IC50,"[1]; Homo sapiens, MTT, mean ± SD, n = 3",5.56 ± 0.74 µM
same,SI index: IC50 HCT116p53^−/−/IC50 HCT116,[1],1.05 ± 0.19 (ns) ^c (*) ^b
same,IC50,"[2]; Homo sapiens, Skin fibroblast, MTT, mean ± SD, n = 3",16.7 ± 2.77 µM
same,IC50,"[3]; Homo sapiens, HCT-116, MTT, 72 h, mean ± SD, n = 3",5.31 ± 0.23 µM
same,IC50,"[4]; Homo sapiens, A-431, MTT, 72 h, mean ± SD, n = 3",3.47 ± 0.32 µM
same,SI index: IC50 BJ/IC50 A-431,[4],4.88 ± 1.08 (**) ^c (ns) ^b
same,IC50,"lung carcinoma NCI-H1299; Homo sapiens, NCI-H1299, MTT, 72 h, mean ± SD, n = 3",1.07 ± 0.25 µM
same,"times more cytotoxic than cisplatin, NCI-H1299",lung carcinoma NCI-H1299; [7],5.33 times
same,"time at which cell death starts to increase significantly, HCT116",HCT116 cells,24 h
same,"confluence, HCT116",HCT116 cells,up to 16%
same,IC50,"lung carcinoma A549; Homo sapiens, A549, MTT, 72 h, mean ± SD, n = 3",1.6 ± 0.21 µM
same,"times more cytotoxic than cisplatin, A549",lung carcinoma A549; [7],3.72 times
same,"time at which cell death starts to increase significantly, HCT116p53^−/−",HCT116 p53^−/− cells,24 h
same,"confluence, HCT116p53^−/−",HCT116 p53^−/− cells,up to 16%
same,IC50,"[5]; Homo sapiens, MRC5, 72 h, MTT, 72 h, mean ± SD, n = 3",16.9 ± 2.96 µM
same,IC50,"[5]; MTT, 72 h, mean ± SD, n = 3",16.9 ± 2.96 µM
"O=C1NC(CSCSCC2NC(=O)c3ccc([N+](=O)[O-])cc3NC2=O)C(=O)Nc2cc([N+](=O)[O-])ccc21 (centres unmarked) [Compound 11, 3,3′-((methylenebis(sulfanediyl))bis(methylene))bis(8-nitro-3,4-dihydro-1H-benzo[e][1,4]diazepine-2,5-dione)]",IC50,[1]; Homo sapiens,6.07 ± 0.9 µM
same,SI index: IC50 HCT116p53^−/−/IC50 HCT116,[1],1.26 ± 0.3 (ns) ^c (*) ^b
same,IC50,"[2]; Homo sapiens, Skin fibroblast",23.1 ± 2.34 µM
same,IC50,"[3]; Homo sapiens, HCT-116, 72 h",4.9 ± 0.53 µM
same,IC50,"[4]; Homo sapiens, A-431, 72 h",3.97 ± 0.87 µM
same,IC50,"lung carcinoma NCI-H1299; Homo sapiens, NCI-H1299, 72 h",4.91 ± 1.45 µM
same,"time at which cell death starts to increase significantly, HCT116",HCT116 cells,36 h
same,"confluence, HCT116",HCT116 cells,up to 16%
same,IC50,"lung carcinoma A549; Homo sapiens, A549, 72 h",16.3 ± 4.65 µM
same,SI index: IC50 MRC-5/IC50 A549,"lung carcinoma A549; selectivity index, normal lung MRC-5 vs A549",1.86 ± 0.79 (ns) ^c (ns) ^b
same,"time at which cell death starts to increase significantly, HCT116p53^−/−",HCT116 p53^−/− cells,36 h
same,"confluence, HCT116p53^−/−",HCT116 p53^−/− cells,up to 16%
same,IC50,"[5]; Homo sapiens, MRC5, 72 h",28.7 ± 7.6 µM
N#CCC[C@H]1NC(=O)c2ccccc2-n2c1nc1ccccc1c2=O [auranthine],cytotoxic activity against HCT-116,HCT-116,no cytotoxic activities
same,cytotoxic activity against MDA-MB-435,MDA-MB-435,no cytotoxic activities
same,cytotoxic activity against Calu-3,Calu-3,no cytotoxic activities
same,cytotoxic activity against normal IKHE,normal IKHE cell line,no cytotoxic activities
same,cytotoxic activity against HepG2,HepG2,no cytotoxic activities
CN1c2ccccc2C(=O)n2c3ccccc3c3ccnc1c32 [evodiagenine],cytotoxic activity against Sarcoma 180,Sarcoma 180,exhibits cytotoxic activity
same,cytotoxic activity against Heps (liver cancer),[6],exhibits cytotoxic activity
